Experimental data from patent US6326395A, “Antifungal activity of dicationic molecules” (priority 1999, dated 2001).
Where a name gives a salt, the structure may show the parent alone.

What was measured:
Cryptococcus neoformans = experiment: in vitro antifungal susceptibility testing (MIC, MFC; broth macrodilution), Tables 1-7; type: cell-based
C. albicans 102.96 = experiment: antifungal susceptibility testing (MIC, MFC), extended spectrum; type: cell-based, Candida albicans; settings: Candida albicans, C. albicans 102.96, fluconazole-resistant
Text: (§1) Antifungal susceptibility testing for compounds set forth in Examples 1-20 is discussed hereinbelow. The fungi that were employed included two reference strains, C. neoformans var. neoformans H99 and C. albicans A39 and the following clinical isolates: (1) two strains of fluconazole-resistant C. neoformans var. neoformans (135.95 and 114.96); (2) two strains of C. neoformans var. gattii (119.95 and 114.95); (3) two strains of fluconazole-resistant C. albicans (102.96 and 103.96); and (4) one strain each of Torulopsis glabrata (142.91), Candida parapsilosis (111.96), Candida krusei (132.91), C. tropicalis (110.96), Candida lusitaniae (111.92), Fusarium solani (152.89), Aspergillus fumigatus (168.95), and Aspergillus flavus (112.96). Antifungal susceptibility testing was performed using an RPMI-1640 medium (Sigma Chemical Co., St. Louis, Mo.) with glutamine, without sodium bicarbonate, and buffered at pH 7.0 with 0.165 M morpholine-propanesulfonic acid (MOPS).
(§2) In vitro susceptibility testing in the form of Minimum Inhibitory Concentration (MIC) experiments were performed using the broth macrodilution method according to the recommendations of the National Committee for Clinical Laboratory Standards (see 1995 manual). The only difference compared to the standardized procedure was the choice of drug dilutions ranging from 100 to 0.09 μg/ml. Briefly, this procedure specifies an inoculum grown at 35° C. and adjusted to a concentration of 0.5-2.5×10^3 CFU/ml with an incubation of the test performed at 35° C. and reading at 48 hours for all yeasts except for C. neoformans which is interpreted at 72 hr.
(§3) Minimum Fungicidal Concentration (MFC) experiments were adapted from a method by McGinnis (McGinnis, M. R., (1980) "Susceptibility testing and bioassay procedure", p. 431, Academic Press, Inc., New York). Briefly, 10 μl aliquots from tubes with growth inhibition were plated onto Sabouraud agar plates. The lowest drug concentration that yielded three or fewer yeasts colonies was recorded as the MFC.
(§4) Antifungal susceptibility testing for compounds set forth in Examples 21-28 is discussed hereinbelow. The fungi that were employed included two quality control reference strains, C. neoformans var. neoformansH99 and C. albicans A39 and the following clinical isolates: (1) four strains of C. neoformans var. neoformans (167.95; 135.95; 114.96; and 133.95) of which three were fluconazole-resistant>64 μg/ml (135.95; 114.96; and 133.95); (2) two strains of C. neoformans var. gattii (119.95 and 114.95); (3) two strains of fluconazole-resistant>64 μg/ml C. albicans (102.96 and 103.96); and (4) one strain each of C. glabrata (142.91), Candida parapsilosis (111.96), Candida krusei (132.91), C. tropicalis (110.96), Candida lusitaniae (111.92), Fusarium solani (152.89), Aspergillus fumigatus (168.95), Rhizopus arrhizus (117.89), Paecilomyces lilacinus (137.90), and Aspergillus flavus (112.96). Antifungal susceptibility testing was performed using an RPMI-1640 medium (Sigma Chemical Co., St. Louis, Mo.) with glutamine, without sodium bicarbonate, and buffered at pH 7.0 with 0.165 M morpholinepropanesulfonic acid (MOPS).
as §3, with “p.431,” for “p. 431,”, “3” for “three”, “MFC. Several drugs were also rescreened with a subculture of 100 μl aliquots from tubes with no growth and there was no change in MFC.” for “MFC.”

C. albicans 103.96 = experiment: as above; type: cell-based, Candida albicans; settings: Candida albicans, C. albicans 103.96, fluconazole-resistant
Text: as §1, §2, §3, §4
as §3, with “p.431,” for “p. 431,”, “3” for “three”, “MFC. Several drugs were also rescreened with a subculture of 100 μl aliquots from tubes with no growth and there was no change in MFC.” for “MFC.”

C. lusitaniae 111.92 = experiment: as above; type: cell-based, Candida lusitaniae; settings: Clavispora lusitaniae
Method: Antifungal susceptibility testing for compounds set forth in Examples 1-20 is discussed hereinbelow. […]
as §2, with “The only difference compared to the standardized procedure was the choice of drug dilutions ranging from 100 to 0.09 μg/ml.” left out
as §3, with “Briefly, 10 μl aliquots from tubes with growth inhibition were plated onto Sabouraud agar plates.” left out, “MFC. […]” for “MFC.”
Minimum Fungicidal Concentration (MFC) experiments were adapted from a method by McGinnis (McGinnis, M. R., (1980) "Susceptibility testing and bioassay procedure", p.431, Academic Press, Inc., New York). […] The lowest drug concentration that yielded 3 or fewer yeasts colonies was recorded as the MFC. […]

MIC (Cryptococcus neoformans; 35° C., 72 hr, read-out: MIC80 (Minimum inhibitory concentration 80%)): 0.78 µg/mL
MIC (C. albicans 102.96; 48 hours, read-out: MIC80): 1.56 µg/mL
MIC (C. albicans 103.96; 48 hours, read-out: MIC80): 1.56 µg/mL
MIC (C. lusitaniae 111.92; 48 hours, read-out: MIC80): 0.78 µg/mL
Compound: CC(C)NC(=N)c1ccc2nc(-c3ccc4c(c3)Cc3cc(-c5nc6ccc(C(=N)NC(C)C)cc6[nH]5)ccc3-4)[nH]c2c1 [Compound 57, 2,7-Bis[2-(5-N-isopropylamidino)benzimidazoyl]fluorene hydrochloride]
MFC (Cryptococcus neoformans; Tables 2-7, three or fewer colonies, read-out: MFC (Minimum fungicidal concentration)): 0.78 µg/mL
MFC (C. albicans 102.96): 12.5 µg/mL
MFC (C. albicans 103.96): 12.5 µg/mL
MFC (C. lusitaniae 111.92): 3.12 µg/mL
